Test results reported in ChEMBL document CHEMBL1150717, “5'-Hydroxyisoavrainvilleol, a new diphenylmethane derivative from the tropical green alga Avrainvillea nigricans” (J Nat Prod, 1987).
Converted amounts (≈) assume the structure as drawn. The source made the active and inactive calls. No cut-off for these calls is given here.

What was measured:
[1] = system: Carassius auratus; assay: Toxicity in goldfish at 10 ug/ml; format: organism-based; settings: in vivo
[2] = system: Escherichia coli; assay: Antimicrobial activity against Escherichia coli at 100 ug/disk by paper disk antibiotic sensitivity assay; format: functional, organism-based
[3] = system: Bacillus subtilis; assay: Antimicrobial activity against Bacillus subtilis at 100 ug/disk by paper disk antibiotic sensitivity assay; format: functional; settings: read-out: IZ
[4] = system: Pseudomonas aeruginosa; assay: Antimicrobial activity against Pseudomonas aeruginosa at 100 ug/disk by paper disk antibiotic sensitivity assay; format: functional
[5] = system: Serratia marcescens; assay: Antimicrobial activity against Serratia marcescens at 100 ug/disk by paper disk antibiotic sensitivity assay; format: functional
[6] = system: Candida albicans; assay: Antimicrobial activity against Candida albicans at 100 ug/disk by paper disk antibiotic sensitivity assay; format: functional, organism-based
[7] = system: Staphylococcus aureus; assay: Antimicrobial activity against Staphylococcus aureus at 100 ug/disk by paper disk antibiotic sensitivity assay; format: functional; settings: read-out: IZ
[8] = system: Bacillus subtilis; assay: Antimicrobial activity against Bacillus subtilis at 50 ug/disk by paper disk antibiotic sensitivity assay; format: functional; settings: read-out: IZ
[9] = system: Bacillus subtilis; assay: Antimicrobial activity against Bacillus subtilis at 25 ug/disk by paper disk antibiotic sensitivity assay; format: functional; settings: read-out: IZ
[10] = system: Candida albicans; assay: Antimicrobial activity against Candida albicans at 200 ug/disk by paper disk antibiotic sensitivity assay; format: functional; settings: read-out: IZ
[11] = system: Staphylococcus aureus; assay: Antimicrobial activity against Staphylococcus aureus at 50 ug/disk by paper disk antibiotic sensitivity assay; format: functional; settings: read-out: IZ
[12] = system: KB; assay: Cytotoxicity against human KB cells; format: functional; settings: read-out: ID50 (the source's name)
[13] = system: Pseudomonas aeruginosa; assay: Antimicrobial activity against Pseudomonas aeruginosa at 200 ug/disk by paper disk antibiotic sensitivity assay; format: functional; settings: read-out: IZ
[14] = system: Escherichia coli; assay: Antimicrobial activity against Escherichia coli at 200 ug/disk by paper disk antibiotic sensitivity assay; format: functional; settings: read-out: IZ
[15] = system: Staphylococcus aureus; assay: Antimicrobial activity against Staphylococcus aureus at 25 ug/disk by paper disk antibiotic sensitivity assay; format: functional; settings: read-out: IZ
[16] = system: Serratia marcescens; assay: Antimicrobial activity against Serratia marcescens at 200 ug/disk by paper disk antibiotic sensitivity assay; format: functional; settings: read-out: IZ

SMILES | Activity [1] | inhibition zone (IZ) [2] | zone of inhibition at 100 µg/disc [3] | inhibition zone (IZ) [4] | inhibition zone (IZ) [5] | inhibition zone (IZ) [6] | zone of inhibition at 100 µg/disc [7] | zone of inhibition at 50 µg/disc [8] | zone of inhibition at 25 µg/disc [9] | zone of inhibition at 200 µg/disc [10] | zone of inhibition at 50 µg/disc [11] | IC50 [12] | zone of inhibition at 100 µg/disc ([4]; read-out: IZ) | zone of inhibition at 100 µg/disc ([5]; read-out: IZ) | zone of inhibition at 200 µg/disc [13] | zone of inhibition at 200 µg/disc [14] | zone of inhibition at 25 µg/disc [15] | zone of inhibition at 200 µg/disc [16]
OCc1cc(O)c(O)c(Br)c1Cc1cc(O)c(O)c(Br)c1 | Non-toxic | inactive | 11 mm | inactive | inactive | inactive | 10 mm | 10 mm | 9 mm | – | – | – | – | – | – | – | – | –
OCc1cc(O)c(O)c(Br)c1 | Non-toxic | – | 12 mm | – | – | – | 13 mm | 10 mm | 8 mm | 8 mm | 11 mm | 8.9 µg/mL (≈ 40.6 µM) | 8 mm | 9 mm | 9 mm | 10 mm | 8 mm | 13 mm
OCc1cc(Br)c(O)c(O)c1Cc1ccc(O)c(Br)c1 [AVRAINVILLEOL] | Non-toxic | inactive | 14 mm | inactive | – | inactive | 16 mm | 12 mm | 9 mm | – | 12 mm | 10 µg/mL (≈ 24.7 µM) | – | – | – | – | 10 mm | 9 mm
